Experimental data from a melting point compilation (Tetko et al.; mined from patent text by program, amines drawn as free bases though some values may be those of a salt).

| melting point | SMILES |
| --- | --- |
| 227 to 230 °C | O=C(O)c1cccc(Nc2nc(Oc3ccccc3)nc(Oc3cccc(Cl)c3)n2)c1 |
| 171 to 172 °C | COc1ccc(OCC(O)CN2CCN(c3ccccc3C(=O)O)CC2)c(C(C)(C)C)c1 (stereo unspecified) |
| 87.5 to 88.5 °C | O=CNC1=CCc2ccccc21 |
| 107 to 108 °C | CS(=O)(=O)c1cccc(Cc2cc3c(F)ccc(-c4cccc(C(=O)NCC(N)=O)c4)c3s2)c1 |
| 181 to 182 °C | CC(=O)C1C(=O)N(C(=O)Nc2ccc(F)cc2)c2ccccc21 (stereo unspecified) |
| 94.3 °C | NC(=O)COCCN1CCN(C(c2ccccc2)c2ccc(Cl)cc2)CC1 (single isomer, unassigned; (-)) |
| 170 °C | CCc1cn(C2CC(OC(C)=O)C(CN(C)C(=O)Cc3ccccc3Br)O2)c(=O)[nH]c1=O (stereo unspecified) |
| 153 to 160 °C | COc1cc2c(cc1S(=O)(=O)Cl)CCN(C(C)=O)CC2 |
| 235 °C | COc1cc(OC)cc(C(=O)Nc2ccc3ccc(Cl)nc3n2)c1 |
| 116 to 117 °C | CC(=Cc1ccccc1Br)c1ccc2c(c1)C(C)(C)CCC2(C)C |
| 122 to 124 °C | O=C(Nc1ccc(C(F)(F)F)cc1)N1CCC2Cc3ccccc3C2=N1 (stereo unspecified) |
| 148 to 149 °C | O=C(O)CCc1conc1-c1ccc(Cl)c(F)c1 |
| 177 to 179 °C | CC(Oc1ncn(-c2cccc(F)c2)n1)C(=O)O (stereo unspecified) |
| 176 to 178 °C | O=C(NC1=NN(c2ccc(Cl)cc2)C(c2ccccc2)C1)C(F)(F)F (stereo unspecified) |
| 146 to 147 °C | CC1(C)CC(=O)N(CCCCN2CCN(c3nsc4ccccc34)CC2)C(=O)C1 |
| 107 to 109 °C | COc1cc(C)c(CC(=O)O)cc1C(C)C |
| 106 °C | COC(=O)C1CCn2c1cc(Cl)c2C(=O)c1ccccc1 (stereo unspecified) |
| 145 °C | CC(C)(C)OC(=O)Nc1ccccc1O |
| 55 to 59 °C | CCCn1nc(C(C)C)c(C(=O)OCc2cccc(C(=O)c3ccccc3)c2)c1Cc1ccc(-c2ccccc2S(=O)(=O)NC(=O)OC(C)(C)C)c(F)c1 |
| 175 to 176 °C | COC(=O)c1c(OC)ccc2ccccc12 |
| 134 to 135 °C | C[C@H](C#Cc1ccc(Cc2ccc3ccccc3c2)s1)N(O)C(N)=O |
| 82 to 83 °C | CCOC(=O)c1cn(Cc2ccccc2)nc1NC(=O)NCc1ccccc1 |

| melting point | SMILES |
| --- | --- |
| 113 to 114 °C | CON1C=Cc2ccccc2C1 |
| 138 to 140 °C | O=C1CCC(O)(c2ccccc2Cc2ccccc2)CC1 |
| 153 to 155 °C | CNC(=O)c1cc(-c2ccc(OC)c(F)c2)nn(CC(C)C)c1=O |
| 134 to 135 °C | COC(=O)c1ccc(-c2nc(-c3cccc(C(F)(F)F)c3)co2)cc1 |
| 106 to 107 °C | CCOC(=O)C(=CNC1CC1)C(=O)c1c(F)cc(Cl)c(F)c1Cl |
| 128 °C | CCOC(=O)N1CCC(NS(=O)(=O)c2ccc3ccccc3c2)CC1 |
| 52 °C | CCOC(=O)C(=Cc1ccc(-c2cccc(NC)c2)cc1)OCC |
| 79 to 81 °C | CCOC(=O)C(C(=O)NCc1ccccc1)=C1SC=CS1 |
| 193 to 197 °C | OCC1CCC(N2CCC(=C3c4ccccc4Sc4ccc(C(F)(F)F)cc43)CC2)CC1 (stereo unspecified) |
| 303 to 304 °C | O=C(O)c1cc(-c2ccc(Cl)cc2)nc(-c2ccc(Cl)c(Cl)c2)c1 |
| 90 to 97 °C | CC(C)c1c(C(=O)Nc2ccccc2)c(-c2ccccc2)c(-c2ccc(F)cc2)n1CC[C@H]1C[C@H](O)CC(=O)O1 (relative stereo) |
| 203 to 205 °C | N#Cc1ccccc1NC(=O)c1ccc(-n2nc(C(F)(F)F)cc2C(F)(F)F)cc1 |
| 113 to 114 °C | CCOC(=O)c1cn(-c2ccccc2)nc1OCc1ccccc1 |
| 206 to 208 °C | N#Cc1cn(-c2ccc(Cl)c(Cl)c2)c(=O)[nH]c1=O |
| 111 to 112 °C | CC(=O)c1ccc(OCCCN2CCC(c3noc4cc(F)ccc34)CC2)cc1 |
| 130 to 131 °C | CCN1CCN(C(=O)c2ccc(C(=O)N3CCN(c4ncccc4NC(C)C)CC3)cc2)CC1 |
| 63 to 65 °C | C=CCn1c(=O)[nH]c(=O)n(-c2ccccc2)c1=O |
| 158 to 159 °C | CC(O)c1ccc(-c2ccc(OCc3ccccc3)cc2)cc1 (single isomer, unassigned; (+)) |
| 124 to 128 °C | Cc1ccc(Cl)c(N)c1C(N)=O |
| 135 to 136 °C | C=CCN(Cc1cc(Br)ccc1OCc1ccccc1)c1ccc(C(=O)O)nn1 |
| 186 °C | CNC(=O)c1ccc2c(c1)c(-c1cc3cccnc3[nH]1)cn2C |
| 178 °C | Cc1cccc(N=C2NCCN2C(=O)Nc2ccc(F)cc2)c1 |

More lines, now with the values behind:

| SMILES | melting point |
| --- | --- |
| O=C1NC(C(=O)NCCO[N+](=O)[O-])C(c2cccs2)S1 (stereo unspecified) | 120 to 122 °C |
| COc1ccc2c(c1)c(-c1cc3nccnc3[nH]1)cn2C | 270 to 272 °C |
| COc1ccc(C2CNCCc3c2cc(OC)c(OC)c3Cl)cc1 (stereo unspecified) | 139 to 142 °C |
| Oc1ccccc1-c1nc(-c2ccccc2O)n(Cc2cccnc2)n1 | 174 to 176 °C |
| CCC(O)(CC)c1ccc(Cl)c2nc3n(c12)CCCN3c1ccc(Cl)cc1C(F)(F)F | 178 to 180 °C |
| CCc1c(C(=O)OC)ncc2[nH]c3cc(OC)c(OC)cc3c12 | 207 to 209 °C |
| CC(C)C(=O)NC(c1ccc(C=NO)cc1)C(F)(F)F (stereo unspecified) | 169 to 171 °C |
| Cc1cccc(NN)n1 | 54 to 56 °C |
| CC(C)=CC(=O)N[C@H]1CC[C@H](CCN2CCC(c3cccc4c3CCO4)CC2)CC1 | 177 °C |
| CC(=O)OC1OC(CF)C(OC(C)=O)C1OC(C)=O (stereo unspecified) | 98 to 101 °C |
| COC(=O)c1ccc(CCl)nc1C1=NC(C)(C(C)C)C(=O)N1 (stereo unspecified) | 127 to 129 °C |
| OC1CCCCC1n1cnc2cc(Cl)c(Cl)cc21 (stereo unspecified) | 236 to 238 °C |
| CCOc1ccc(-c2nc(OC)ccc2N2CCC(c3ccc(OC)cc3)N(C)CC2)cc1 (stereo unspecified) | 103 to 107 °C |
| N#Cc1ncc(OC2SCC(O)C(O)C2O)cc1F (stereo unspecified) | 155 to 156 °C |
| CC(=O)NC[C@@H]1C[C@H]1c1cccn2nc(C)cc12 (relative stereo) | 100 to 101 °C |
| CCN(CC)S(=O)(=O)c1ccccc1S(N)(=O)=O | 156 to 159 °C |
| O=C(O)CCCC(=O)Nc1cccc(-c2nnc(-c3ccc(C(F)(F)F)cc3)nn2)c1 | 246 to 248 °C |
| CCOc1ccc2[nH]c(C)cc2c1O | 77 to 78 °C |
| COC(=NC#N)NCc1ccc(-c2csc(N=C(N)N)n2)o1 | 205 to 206 °C |

| SMILES | melting point |
| --- | --- |
| Nc1ncnc2c1ncn2C1CCC(O)C1O (stereo unspecified) | 201 to 202 °C |
| NNc1ncc(-c2ccc(F)cc2)nn1 | 231 to 235 °C |
| CS(=O)(=O)Nc1ccc(OCCCN2C(=O)c3ccccc3C2=O)cc1 | 176 to 178 °C |
| COc1ccc(C2(c3cccc(-c4ccncc4)c3)N=C(N)N(C)C2=O)cc1C (stereo unspecified) | 175 °C |
| O=C(c1ccc(OS(=O)(=O)C(F)(F)F)cc1OS(=O)(=O)C(F)(F)F)c1ccc(OS(=O)(=O)C(F)(F)F)cc1OS(=O)(=O)C(F)(F)F | 94 to 96 °C |
| O=[N+]([O-])c1nccn1CC(O)CN1C2CCCCCC21 (stereo unspecified) | 91 to 91.5 °C |
| COC(=O)CCC(N=O)C(C)(C)Cl (stereo unspecified) | 90 to 91 °C |
| CCCCCCn1ccc(NC(C)=O)nc1=O | 129 to 130 °C |
| CC(C)C=CC1(C(F)(F)F)OCC(=O)Nc2ccc(F)cc21 (stereo unspecified) | 145 to 156 °C |
| Clc1ccc(CNc2cncnc2)cc1 | 121 °C |
| COc1cc(-c2nc3ccccc3n2Cc2ccc(Cl)cc2Cl)cc(OC)c1OC | 186 °C |
| COc1nn(-c2ccc(CBr)c(Cl)c2)nc1Cl | 141 to 142 °C |
| COC(=O)c1cc(I)ccc1N=C=S | 60 to 62 °C |
| CSc1nn2c(N)cc(C)nc2c1S(=O)(=O)c1cccs1 | > 230 °C |
| NC(=O)CCCOc1ccc(C23CC4CC(CC(C4)C2)C3)cc1 | 176 to 177 °C |
| CC1=CC(C)(C)Nc2ccc3c(c21)C(=C1SCCCS1)Oc1ccc(F)cc1-3 | 120 to 122 °C |
| CCN1CCN(CC)C2SC(=C(C(=O)OC(C)C)C(=O)OC(C)C)SC21 (stereo unspecified) | 84 to 86 °C |
| CCSCC#Cc1cc(F)c2ncc(C(=O)NCc3ccc(Cl)cc3)c(O)c2c1 | 232 to 233 °C |
| CCCCCCCCCCCCCCCCCCOC(=O)N(N)C(=O)c1cc(O)ccc1O | 163 °C |

| SMILES | melting point |
| --- | --- |
| COc1ccc(C(O)C=Cc2ccc(N(C)C)cc2)cc1 (stereo unspecified) | 137 to 148 °C |
| N#Cc1cnn(-c2c(Cl)cc(SC(F)(F)F)cc2Cl)c1N | 185 to 187 °C |
| COc1ccc2oc(N(C=O)[C@@H](Cc3ccccn3)c3ncc(-c4ccc([N+](=O)[O-])cc4)n3C)cc2c1 | 210 to 211 °C |
| CC(C)(C)OC(=O)N1CCC(c2ccc(COc3ccc(-c4nc[nH]n4)cc3)nc2)CC1 | 147 to 150 °C |
| O=C(Nc1cccc(-n2nc(C(F)(F)F)cc2C(F)(F)F)c1)c1cccc(Cl)c1Cl | 119 to 121 °C |
| CCOC(=O)/C=C/c1cc(-n2cnnc2)cc(C(F)(F)F)c1N | 225 to 227 °C |
| CCn1c(C)nc(OCc2ccc(OCc3ccc(F)cc3)cc2)c(C)c1=O | 81 to 82.3 °C |
| CCOC(=O)c1c(Nc2c(C)cccc2Cl)n[nH]c1C | 158 to 159 °C |
| O=[N+]([O-])c1ccc(-n2nnnc2Cl)cc1 | 96.5 °C |
| COc1cc(NC(=O)C(F)(F)F)cc(OC)c1C(C)=O | 172 to 173 °C |
| CCCOc1ccc(S(=O)(=O)N2CCN(C)CC2)cc1-c1cc2c([nH]1)c(=O)n(C)c(=O)n2CCC | 198 °C |
| C=Cc1ccc(-c2ccccc2F)cc1 | 38 °C |
| COC(=O)[C@H]1[C@H](NC(C)=O)C(=O)O[C@@H]1C | 105 to 106 °C |
| CC(C)(C)COc1c(-c2ccc(S(C)(=O)=O)cc2)cnn(-c2cccc(Cl)c2)c1=O | 151 to 153 °C |
| CCCCCCCC(=O)Nc1ccc(OCC(O)CNC(C)C)c(C#N)c1 (stereo unspecified) | 116 to 118 °C |
| COc1ccc(CNC(SC)=C(C#N)C#N)cc1 | 100 to 101 °C |
| CC(=O)C1CCC2C3CCC4CC(OC(=O)C(Cl)(Cl)Cl)CCC4(C)C3C(=O)CC12C (stereo unspecified) | 126 to 127 °C |
| COCCOc1cc2c(Nc3ccc(Sc4nccn4C)c(Cl)c3)c(C#N)cnc2cc1N1CCC(N2CCCC2)CC1 | 238 to 241 °C |
| CN1C(=S)N(c2cc(Cl)cc(Cl)c2)C(O)C1O (stereo unspecified) | 143 °C |
